Source: patent US20170114030A1, “COMPOSITION WITH HIGH CONTENT OF CYCLIC DIPEPTIDE” (SUNTORY HOLDINGS LIMITED, priority 2014, published 2017)

Experiments:
plasma active GLP-1 = assay: In vivo plasma active GLP-1 level-increasing action after oral administration; set-up: species or system mice; conditions: 10 mg/kg orally; for Plasma active GLP-1 level (relative value to control group as 100), Average value: male C57/BL6J mice, blood after 30 minutes, 0.5% CMC-Na group = 100; for Significant difference (p < 0.05) vs control group, plasma active GLP-1 level: mice, 30 minutes, Student's t-test
Procedure: (§1) In the Test Examples below, data were represented as average value±standard error. In Test Examples 1, 2, and 3, a Student's t-test was used for a statistical test, and in other Test Examples, one-way ANOVA was carried out for dispersion analysis followed by a multiple comparison test by using a Dunnet's test. […] All of these analyses were carried out by using an SPSS for Windows release 17.0 (manufactured by SPSS Inc.).
Among the cyclic dipeptides, cyclic dipeptides for which an in vitro GLP-1 secretion-accelerating action was found and highly lipid-soluble cyclic dipeptides were used in the following experiment. Seven-week-old male C57/BL6J mice were purchased from CLEA Japan, Inc. for use, and they were subjected to an experiment after 1 week of a habituation period. Each animal was grown in an animal room with an air conditioning system (temperature: 23.5±1.0° C., humidity: 55±10 RH %, air ventilation: 12 to 15 times/hour, illumination: from 7:00 to 19:00/day).
After the habituation period, the mice were subjected to 5.5 hours of food deprivation and 2 hours of water deprivation. Thereafter, a cyclic dipeptide dissolved or suspended in a 0.5% CMC-Na aqueous solution in 10 mg/kg was orally administered to each mouse forcibly. After 30 minutes, the blood was collected from the abdominal vena cava under anesthesia, and 1 μL of heparin sodium and 1 μL of 10 mM Sitagliptin phosphate were added to each collected blood, which was then subjected to centrifugation at 8000 rpm for 10 minutes to recover the plasma, and the plasma active GLP-1 level was measured by using the ELISA kit. In the analysis, the active GLP-1 level for a group administered with 0.5% CMC-Na aqueous solution was defined as 100, and relative values thereto were used.
In each Table, cyclic dipeptides for which an in vivo plasma active GLP-1 level-increasing action was found and was not found are listed.

NCI-H716 cells = assay: In vitro GLP-1 secretion-accelerating action (active GLP-1 ELISA); assay type: cell-based; conditions: for Significant difference (p < 0.05) vs control group, amount of active GLP-1 secreted: 1 hour, Student's t-test; for Amount of active GLP-1 secreted (relative value to control group as 100), Average value: after 1 hour, group with no cyclic dipeptide = 100
Procedure: as §1
Among the cyclic dipeptides, 92 highly water-soluble cyclic dipeptides were used in the following experiment. In each well of a Poly-L-Lysine 96-well plate, NCI-H716 cells suspended in 100 μL of a DMEM (with 10% FBS, 2 mM glutamine, and 1% antibiotics added in advance) were seeded at 0.5×10^5 cells/well, and cultured in a CO2 incubator (manufactured by ESPEC CORP.) for 48 hours. After washing with PBS(+), 100 μL of a PBS(+) solution with each cyclic dipeptide at a final concentration of 10 mM and 10 μM of Sitagliptin phosphate added therein was added to the cells. After 1 hour, the resultant solution was recovered, and the amount of active GLP-1 in the solution was measured by using the ELISA kit. In the analysis, the amount of active GLP-1 for a group with no cyclic dipeptide added was defined as 100, and relative values thereto were used.
In each Table, cyclic dipeptides for which an in vitro active GLP-1 secretion-accelerating activity was found and was not found are listed.

[1] = Experiment 2, cyclic dipeptide 10 mM with 10 μM Sitagliptin phosphate
[2] = Experiment 4, cyclic dipeptide 10 mM with 10 μM Sitagliptin phosphate

Structure (SMILES)	Plasma active GLP-1 level (relative value to control group as 100), Average value (plasma active GLP-1; Experiment 1)	Significant difference (p < 0.05) vs control group, plasma active GLP-1 level (plasma active GLP-1; Experiment 1)	Significant difference (p < 0.05) vs control group, amount of active GLP-1 secreted (NCI-H716 cells; Experiment 1, 10 mM)	Amount of active GLP-1 secreted (relative value to control group as 100), Average value (NCI-H716 cells; Experiment 1, cyclic dipeptide 10 mM with 10 μM Sitagliptin phosphate)	Significant difference (p < 0.05) vs control group, amount of active GLP-1 secreted (NCI-H716 cells; Experiment 2, 10 mM)	Amount of active GLP-1 secreted (relative value to control group as 100), Average value (NCI-H716 cells; [1])	Plasma active GLP-1 level (relative value to control group as 100), Average value (plasma active GLP-1; Experiment 2)	Significant difference (p < 0.05) vs control group, plasma active GLP-1 level (plasma active GLP-1; Experiment 2)	Significant difference (p < 0.05) vs control group, amount of active GLP-1 secreted (NCI-H716 cells; Experiment 4, 10 mM)	Amount of active GLP-1 secreted (relative value to control group as 100), Average value (NCI-H716 cells; [2])
C[C@@H]1NC(=O)[C@H](CO)NC1=O [compound 25]	158	Yes	Yes	257	–	–	–	–	–	–
O=C1N[C@@H](Cc2c[nH]c3ccccc23)C(=O)N[C@H]1Cc1c[nH]cn1 [compound 60]	129	No	–	–	Yes	260	–	–	–	–
NCCCC[C@@H]1NC(=O)[C@H](Cc2ccccc2)NC1=O [compound 63]	206	Yes	–	–	Yes	220	–	–	–	–
CCC(C)C1NC(=O)C(CCC(N)=O)NC1=O (stereo not drawn) [compound 182]	–	–	–	–	–	–	188	Yes	Yes	445
C[C@@H]1NC(=O)C2CCCN2C1=O (stereo partly drawn) [compound 187]	–	–	–	–	–	–	217	Yes	Yes	1186
NC(=O)CCC1NC(=O)C(Cc2c[nH]cn2)NC1=O (stereo not drawn) [compound 191]	–	–	–	–	–	–	247	Yes	Yes	743
O=C(O)CC1NC(=O)C(CO)NC1=O (stereo not drawn) [compound 193]	–	–	–	–	–	–	266	Yes	Yes	509
CC(C)C1NC(=O)C(CCCNC(=N)N)NC1=O (stereo not drawn) [compound 194]	–	–	–	–	–	–	237	Yes	Yes	498
CSCCC1NC(=O)C(CCCNC(=N)N)NC1=O (stereo not drawn) [compound 199]	–	–	–	–	–	–	217	Yes	Yes	652
